Patent publication US20190218226A1, “PRODRUGS OF ANTICANCER AGENTS INDOTECAN AND INDIMITECAN” (Purdue Research Foundation, priority 2016, published 2019)

What was measured:
SF-539 = assay: NCI60 antiproliferative screen, CNS SF-539; assay type: cell-based, human; settings: SF-539, 48 h, sulforhodamine B; read-out: Cytotoxicity (GI50) CNS SF-539
How it was run: (§1)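 Standard NCI60 protocol: 48 h compound treatment (0.01, 0.1, 1, 10, 100 μM), sulforhodamine B staining, optical density ratio to untreated control. GI50 values come from interpolation on a log10 concentration plot.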

[1] = Stability of compound 17 in cell culture medium; assay type: physicochemical; settings: 10 μM, cell-free RPMI 1640 medium, 37° C., after 99 hours
Method: In order to investigate the possibility that hydrolysis of the prodrugs takes place extracellularly rather than intracellularly, compound 17 was added to cell-free cell culture medium and the mixture was incubated at 37° C. Relatively slow conversion to the parent phenol 9 was observed, with 22% conversion after 99 hours.
Stability of Compound 17 in Cell Culture Medium.
RPMI 1640 medium was purchased from Sigma-Aldrich (St. Louis, Mo.). Compound 17 (10 μM) was incubated at 37° C. with RPMI 1640 medium. After 99 h, an aliquot was taken from the incubation mixture and filtered prior to analysis using LC-MS (Waters, Germany). The flow rate was 0.75 mL/min and the eluent was recorded with a DAD at 280 nm.

DU-145 = assay: NCI60 antiproliferative screen, prostate DU-145; assay type: cell-based, human; settings: DU-145, 48 h, sulforhodamine B; read-out: Cytotoxicity (GI50) prostate DU-145
How it was run: as §1

[2] = test system: all human cancer cell lines successfully tested (NCI60); assay: NCI60 mean graph midpoint for growth inhibition; assay type: cell-based; settings: all human cancer cell lines successfully tested; ± standard error; read-out: MGM (mean graph midpoint for growth inhibition)
How it was run: as §1

UACC-62 = assay: NCI60 antiproliferative screen, melanoma UACC-62; assay type: cell-based, human; settings: UACC-62, 48 h, sulforhodamine B; read-out: Cytotoxicity (GI50) melanoma UACC-62
How it was run: as §1

SN12C = assay: NCI60 antiproliferative screen, renal SN12C; assay type: cell-based, human; settings: 48 h, sulforhodamine B, read-out: Cytotoxicity (GI50) renal SN12C
How it was run: as §1

HOP-62 = assay: NCI60 antiproliferative screen, lung HOP-62; assay type: cell-based, human; settings: HOP-62, 48 h, sulforhodamine B; read-out: Cytotoxicity (GI50) lung HOP-62
How it was run: as §1

With COC(=O)CCC(=O)Oc1cc2c(=O)n(CCCN3CCOCC3)c3c(c2cc1OC)C(=O)c1cc2c(cc1-3)OCO2 [Compound 17, 2-Methoxy-6-(3-morpholinopropyl)-5,12-dioxo-6,12-dihydro-5H-[1,3]dioxolo[4′,5′:5,6]indeno[1,2-c]isoquinolin-3-yl Methyl Succinate] as the compound, how does the GI50 (SF-539) read?
The GI50 was < 10 nM.

What about the “conversion to the parent phenol 9” value [1] of the same compound?
The value was 22%.

What about the GI50 (DU-145) of the same compound?
The GI50 was 14 nM.

What about the mean GI50 across NCI60 cell lines (MGM) [2] of the same compound?
Its mean GI50 across NCI60 cell lines (MGM) is 36 ± 18 nM.

What about the GI50 (UACC-62) of the same compound?
Its GI50 is 18 nM.

What about the GI50 (SN12C) of the same compound?
The GI50 was < 10 nM.

What about the GI50 (HOP-62) of the same compound?
The GI50 was 16 nM.
